Results taken from US4835253A, “Specific inhibitors of tissue kallikrein” (The University Hospital, priority 1987, dated 1989).
Values joined by “and” are separate entries in the source; they are usually repeats but may differ in a detail not shown here. Equal values may be shown once. Read-outs that look alike come from different tables or passages of the source. Ada = not defined here

Columns and labels:
[1] = molecular target: porcine pancreatic kallikrein (Sus scrofa, UniProt P00752); assay: Rat femoral artery blood flow response to PPK during and after inhibitor infusion; format: in vivo
Text: (§1) In order to develop a more reproducible, less tachyphylactic system, a rat blood flow model was developed and assessed in male Sprague-Dawley rats. These animals were anesthetized subcutaneously with urethane (1.4 g/kg). Polyethylene PE-10 tubing was inserted into the right femoral artery and femoral vein for intra-arterial and intravenous injections, respectively, the arterial catheter was inserted such that the tip was located immediately proximal to the bifurcation. The rats were tracheostomized and cannulated with PE-200 tubing. A subcutaneous 23 gauge needle was left in the back of the animal for booster injections of urethane (0.35 g/kg every 2.5 hours). A blood flow probe (1.5 mm circumference) was placed on the left femoroal artery and the mean femoral arterial blood flow was monitored with a square-wave electromagnetic flowmeter (Carolina Medical Electronics, model 501). Rat submaxillary gland kallikrein (hereinafter "RSK") or porcine pancreatic kallikrein (hereinafter "PPK") was given intra-arterially, unless otherwise indicated, until a reproducible response was obtained. Each animal was then infused intravenously with KKI-7 inhibitor in DMSO (206 nmole/0.022 ml/min) or with the DMSO vehicle (0.022 ml/min). Bradykinin was also given intra-arterially to determine whether or not the KKI-7 inhibitor effected the blood flow response to bradykinin. The magnitude and duration of the responses to PPK, RSK, and bradykinin were compared before, during, and after the intravenous infusion of KKI-7 or the DMSO vehicle alone. The blood flow increase over the basal blood flow was integrated and expressed as arbitrary units or as the percent change from blood flow increased observed during the control period. The results are provided by FIG. 1 and Table IV below.

Human urinary kallikrein [2] = molecular target: T1, Human urinary kallikrein (Homo sapiens, UniProt P06870); assay: KI determination: inhibition of HUK cleavage of chromogenic substrate S-2266; format: biochemical
T1 construct: Human urinary kallikrein (hereinafter "HUK") was highly purified using a modification of published methods; from tissue; host or cells: human urine
Method: (§2) Human urinary kallikrein (hereinafter "HUK") was highly purified using a modification of published methods that employ ultrafiltration, aprotinin-CH-sepharose affinity chromatography, and Sephadex G-100 gel filtration [ole-MoiYoi et al., Proc. Natl. Acad. Sci. USA 76: 3121-3125 (1979)]. […] The pH of each fraction was determined immediately upon elution, and the fraction was neutralized by addition of 2.0 ml of 2M Tris-HCL buffer (pH 8.0).
KI Determinations: KI measurements were performed using a HP8450A diode array spectrophotometer (Hewlett Packard; Palo Alto, Calif.) attached to a Model 216 computer using the multi-component assay program modified to allow simultaneous determination of reaction velocity in four samples. Dixon plots were used to data reduction and for calculation of […]. […] Inhibition of biologically active kinin from LMW-kininogen was done at pH 7.7 and 37 C.
Procedurally, the KI values for the preliminary analogue inhibitors reported previously [Okunishi et al., Hypertension 7 (Suppl. I): I-72-I-75 (1985)] were determined by adding the chromogenic substrate S-2266 comprising D-Val-Leu-Arg-4-nitroaniline to a mixture of the analogue inhibitor and the HUK.
(§3) Initially, the inhibitor constant (KI) for each of these novel inhibitor compositions was determined using purified HUK and the tripeptide nitroanilide, S-2266. The ability to inhibit hydrolysis of the S-2266 substrate was performed in 50 mM tris-HCL buffer (pH 9.0) at 37 C. Subsequently, the ability of these novel inhibitors to inhibit human plasma kallikrein and bovine pancreatic trypsin were similarly examined using the specific substrates H-D-Pro-Phe-Arg-p-nitroanilide (S-2302) and Glu-Gly-Arg-p-nitroanilide (S-2444) respectively. The degradation products of each series was purified by HPLC and quantified by liquid scintillation counting as previously described.

[3] = Effects of the inhibitor infusion itself in the rat blood flow model; format: in vivo
Text: as §1, with “Each animal was then infused intravenously with KKI-7 inhibitor in DMSO (206 nmole/0.022 ml/min) or with the DMSO vehicle (0.022 ml/min). Bradykinin was also given intra-arterially to determine whether or not the KKI-7 inhibitor effected the blood flow response to bradykinin. The magnitude and duration of the responses to PPK, RSK, and bradykinin were compared before, during, and after the intravenous infusion of KKI-7 or the DMSO vehicle alone.” left out, “The results are provided by FIG. 1 and Table IV below.” left out

bradykinin = assay: Rat femoral artery blood flow response to bradykinin during inhibitor infusion; format: in vivo
Text: as §1, with “Each animal was then infused intravenously with KKI-7 inhibitor in DMSO (206 nmole/0.022 ml/min) or with the DMSO vehicle (0.022 ml/min). Bradykinin was also given intra-arterially to determine whether or not the KKI-7 inhibitor effected the blood flow response to bradykinin. The magnitude and duration of the responses to PPK, RSK, and bradykinin were compared before, during, and after the intravenous infusion of KKI-7 or the DMSO vehicle alone.” left out, “The results are provided by FIG. 1 and Table IV below.” left out

[4] = molecular target: T2, bovine pancreatic trypsin (Bos taurus, UniProt P00760); assay: KI against trypsin with substrate S-2444; format: biochemical; details: read-out: K1, Trypsin
T2 sequence (P00760 24-246): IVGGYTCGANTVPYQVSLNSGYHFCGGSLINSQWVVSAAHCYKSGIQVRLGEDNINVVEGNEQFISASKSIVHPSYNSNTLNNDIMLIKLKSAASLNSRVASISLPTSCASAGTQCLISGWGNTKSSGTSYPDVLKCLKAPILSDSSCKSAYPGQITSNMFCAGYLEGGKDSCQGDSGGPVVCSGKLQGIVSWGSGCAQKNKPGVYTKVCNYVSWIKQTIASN
Method: as §3

Human Plasma Kallikrein = Human Plasma Kallikrein (Homo sapiens, UniProt P03952); assay: KI against plasma kallikrein with substrate S-2302; format: biochemical; details: read-out: K1, Human Plasma Kallikrein
Method: as §3

Human urinary kallikrein [5] = molecular target: T1, Human urinary kallikrein; assay: KM determination: hydrolysis of substrate analogues by HUK (HPLC, scintillation counting); format: biochemical; details: analysis of the reaction products
Method: as §2
KM Determination: Hydrolysis of the substrate analogue inhibitors by HUK was measured by combining the test inhibitor at different concentrations on either side of the KM value with the enzyme at pH 9.0 for thirty minutes at 37 C. The cleavage products were separated from the starting material in the digest by HPLC on a Beckman octadecylsilane (ODS) column (1×25 cm) using a thirty minute gradient of from 0-70% CH3 CN in triethylammonium phosphate buffer (pH 7.0). The starting materials and reaction products were completely resolved under these conditions. Absorbance of the HPLC effluent was monitored at 220 nm. Individual fractions were collected and the amount of peptide degradation products was quantitated by counting in a liquid scintillation counter. Samples containing individual inhibitors were incubated without HUK and solvent blanks were also chromatographed and analyzed in the same way.
For test purposes, in these HUA cleavage studies, individual peptide sequences were synthesized, purified, and characterized as previously described herein. For these cleavage studies, doubly labelled peptides were prepared using [^3 H]-valine and […] respectively. In addition, 6.0N HCL-dioxane was used for removal of tert-butoxycarbonyl protecting groups and 90% hydrogen fluoride/10% anisole (volume/volume) for global deprotection on completion of the synthesis. After extraction and gel filtration on Sephadex G-15, final purification was completed by isocratic elution from a synchrom RP-P column (2.1×25 cm) with CH3 CN--H2 O (8 ml/min). The resultant peptides were deemed to be homogeneous by amino acid analysis; high performance liquid chromatography; thin layer chromatography; and A230 /A260 ratio analysis. […]

[6] = molecular target: T3, rat submaxillary gland kallikrein (Rattus norvegicus, UniProt P00758); assay: Rat femoral artery blood flow response to RSK during and after inhibitor infusion; format: in vivo
T3 sequence (P00758 25-261): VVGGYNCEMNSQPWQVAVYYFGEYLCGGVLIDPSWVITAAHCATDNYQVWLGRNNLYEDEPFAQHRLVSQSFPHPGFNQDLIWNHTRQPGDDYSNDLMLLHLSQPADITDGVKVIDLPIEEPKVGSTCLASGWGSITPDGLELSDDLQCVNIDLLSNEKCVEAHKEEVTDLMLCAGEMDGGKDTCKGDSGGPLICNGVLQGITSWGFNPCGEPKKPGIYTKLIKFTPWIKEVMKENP
Text: as §1

[7] = Mean arterial blood pressure in normotensive, salt-replete rats (infusion or bolus); format: in vivo, rat
Method: Subsequently, a third study utilizing normotensive, salt-replete rats was performed employing an infusion of KKI-7 at a rate of 200 ug of inhibitor per kilogram of rat per minute (200 ug/kg/min). Eight rats each received this infusion for 15 minutes during which the change in mean arterial blood pressure (Torr) was monitored. The results are provided by FIG. 2. In addition, a series of bolus injections were given to conscious, salt-replete, normotensive rats to determine the ED50 dosage necessary to cause a substantive increase in blood pressure. The results are graphically illustrated by FIG. 3 as the log-dose response effect of KKI-7 upon blood pressure.

Rat urinary kallikrein = molecular target: T4, Rat urinary kallikrein (Rattus norvegicus, UniProt P00758); assay: Blood pressure response to injected rat urinary kallikrein during inhibitor infusion; format: in vivo; details: infusion 32 nmol/min/animal, anesthetized rats, RUK 203.5 ng
T4 sequence (P00758 25-261): T3 sequence (P00758 25-261)
Method: A series of in-vivo studies were undertaken to determine the effective of the KKI-7 and KKI-8 inhibitors on the blood pressure response to glandular kallikrein. Initially, three female Dahl hypertension-resistant rats (Brookhaven Laboratories, Brookhaven, N.Y.), and four male Sprague-Dewley rats (Charles River, Wilmington, Mass.) were utilized. Each of these animals was anesthetized with Inactin (100 mg/kg ip) and cannulated in a femoral artery with PE-50 polyethylene tubing (Clay Adams, Parsippany, N.J.) which was connected to a Hewlett-Packard model 1280 blood pressure transducer and model 7702B recorder. The right jugular vein was cannulated with PE-10 tubing. The rats were tracheostomized, but respiration was not artificially assisted. Rat urinary kallikrein (hereinafter "RUK") was repeatedly administered via a venous cannula until a reproducable response was obtained. KKI-8 inhibitor was then infused using a Harvard model 901 infusion pump at a rate of 32 nmol/0.022 ml/min. RUK (203.5 ng in 50 ul) was injected during the infusion period. After the infusion was stopped, the reversibility of the inhibition was examined by further injections of RUK. The infusion of KKI-8 (32 nmol/min/animal) inhibited the very gradual and modest decrease in blood pressure otherwise elicited with RUK.

[8] = iv infusion 206 nmole/0.022 ml/min in DMSO, 2 units PPK
[9] = HUK, S-2266, text, read-out: KI values
[10] = S-2266, 50 mM tris-HCL pH 9.0, 37 C, read-out: K1, Human Urinary Kallikrein
[11] = iv infusion 206 nmole/0.022 ml/min in DMSO

Chain of porcine pancreatic kallikrein (P00752 8-246): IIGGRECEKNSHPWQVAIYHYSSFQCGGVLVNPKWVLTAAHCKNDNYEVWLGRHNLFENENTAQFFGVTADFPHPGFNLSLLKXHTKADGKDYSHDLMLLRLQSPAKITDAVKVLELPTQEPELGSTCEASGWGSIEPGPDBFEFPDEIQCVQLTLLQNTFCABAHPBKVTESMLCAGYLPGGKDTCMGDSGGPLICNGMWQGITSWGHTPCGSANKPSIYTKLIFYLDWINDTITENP
T1 sequence (P06870 25-262): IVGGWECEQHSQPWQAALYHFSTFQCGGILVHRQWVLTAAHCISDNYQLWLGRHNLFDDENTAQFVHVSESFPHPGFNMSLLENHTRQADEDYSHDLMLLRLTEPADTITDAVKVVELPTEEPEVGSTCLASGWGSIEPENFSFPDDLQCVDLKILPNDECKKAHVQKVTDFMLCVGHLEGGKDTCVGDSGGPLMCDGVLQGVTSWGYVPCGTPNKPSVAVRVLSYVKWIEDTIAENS
Chain of Human Plasma Kallikrein (P03952 20-638): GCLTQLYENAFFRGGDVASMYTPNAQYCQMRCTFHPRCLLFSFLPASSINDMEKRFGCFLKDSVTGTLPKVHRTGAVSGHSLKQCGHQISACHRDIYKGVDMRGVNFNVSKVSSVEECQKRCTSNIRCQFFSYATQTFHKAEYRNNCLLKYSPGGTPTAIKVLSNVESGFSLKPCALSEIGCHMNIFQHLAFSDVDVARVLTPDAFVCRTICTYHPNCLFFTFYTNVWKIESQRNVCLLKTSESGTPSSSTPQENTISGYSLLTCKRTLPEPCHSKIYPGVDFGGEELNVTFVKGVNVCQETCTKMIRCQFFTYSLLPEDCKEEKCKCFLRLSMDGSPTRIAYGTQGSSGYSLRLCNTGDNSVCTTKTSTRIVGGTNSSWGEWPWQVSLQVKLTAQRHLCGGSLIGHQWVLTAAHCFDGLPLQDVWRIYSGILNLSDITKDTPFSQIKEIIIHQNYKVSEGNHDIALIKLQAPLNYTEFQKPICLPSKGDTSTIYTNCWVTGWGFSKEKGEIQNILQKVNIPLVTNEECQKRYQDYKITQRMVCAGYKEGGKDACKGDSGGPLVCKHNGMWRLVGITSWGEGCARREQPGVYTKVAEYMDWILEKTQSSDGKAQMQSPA

CC(C)[C@H](NC(=O)[C@H](CO)NC(=O)[C@H](CCCNC(=N)N)NC(=O)[C@H](Cc1ccccc1)NC(=O)CC1CCCCC1)C(=O)N[C@@H](CCC(N)=O)C(N)=O [KKI-7, Cha-Phe-Arg-Ser-Val-Gln-NH2]
response to the injection of PPK ([1]; 2 units of PPK, during and after infusion): reduced
CHANGE IN BLOOD FLOW (% OF CONTROL), PPK injected, AFTER INFUSION 30-60 min [1, 8]: 52%
CHANGE IN BLOOD FLOW (% OF CONTROL), PPK injected, DURING INFUSION 10-30 min [1, 8]: 31%
CHANGE IN BLOOD FLOW (% OF CONTROL), PPK injected, DURING INFUSION <10 min [1, 8]: 38%
Ki (Human urinary kallikrein [2]; [9]): 4 µM
Ki (Human urinary kallikrein [2]; [10]): 4 µM
side-effects of infusing ([3]; during the experimental period): No specific side-effects
change in blood flow caused by the infusion itself ([3]; infusion in the DMSO vehicle): moderate, transient increase in blood flow
effect on the response to bradykinin (bradykinin; bradykinin injected during the inhibitor infusion): no affect
CHANGE IN BLOOD FLOW (% OF CONTROL), BK injected, DURING INFUSION <10 min (bradykinin; iv infusion 206 nmole/0.022 ml/min in DMSO, 1-2 ng bradykinin): 95%
Ki [4]: 12.3 µM
Ki (Human Plasma Kallikrein): 244 µM
rate of cleavage by HUK relative to hexapeptides containing proline in the P3 position (Human urinary kallikrein [5]): approximately 15%
second phase of the response to RSK, of the control value, individual values ([6]; RSK reinjected 10-30 minutes after the infusion was started): 6% and 26%
CHANGE IN BLOOD FLOW (% OF CONTROL), RSK injected, AFTER INFUSION 30-60 min [6, 11]: 35%
CHANGE IN BLOOD FLOW (% OF CONTROL), RSK injected, AFTER INFUSION <10 min [6, 11]: 11%
CHANGE IN BLOOD FLOW (% OF CONTROL), RSK injected, DURING INFUSION 10-30 min [6, 11]: 16%
CHANGE IN BLOOD FLOW (% OF CONTROL), RSK injected, DURING INFUSION <10 min [6, 11]: 52%
response to RSK injections, of the control response, range ([6]; within the first ten minutes after infusion was begun): 49-56%
effect on mean arterial blood pressure ([7]; bolus injection or infusion 200 ug/kg/min for 15 minutes): induces substantial increases
ED50 dose, increase in blood pressure ([7]; bolus injections, conscious, salt-replete, normotensive rats): 750 µg/kg

Ada-Phe-Arg-Ser-Val-Gln-NH2 (Ada-FRSVQ-NH2; reading uncertain; also: printed as Ada-Phe-Arg-Ser-Val-Gln-NH2) [KKI-8]
Ki (Human urinary kallikrein [2]; [9]): 4.2 µM
Ki (Human urinary kallikrein [2]; [10]): 4.2 µM
effect on decrease in blood pressure elicited with RUK (Rat urinary kallikrein): inhibited
Ki [4]: 71.8 µM
Ki (Human Plasma Kallikrein): 358 µM
rate of cleavage by HUK relative to hexapeptides containing proline in the P3 position (Human urinary kallikrein [5]): approximately 15%
